Test results published in ChEMBL document CHEMBL1201862, “PubChem BioAssay data set” (2004).
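All cell lines were grown in 96-well plates and treated with compound for 48 hours. GI50: concentration for 50% inhibition of growth.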 Active and inactive are the calls of the source. No stated cut-off is given here; in the data, active = GI50 up to about 1.1 µM and inactive = higher.

Columns and labels:
Assay in all cases: NCI anticancer screen, dose series, 48 h
SK-OV-3 = system: SK-OV-3
786-0 = system: 786-0
U-251 = system: U-251
MOLT-4 = system: MOLT-4
CAKI-1 = system: CAKI-1
OVCAR-4 = system: OVCAR-4
RXF 393 = system: RXF 393
SK-MEL-5 = system: SK-MEL-5
RPMI-8226 = system: RPMI-8226
HCT-116 = system: HCT-116
SF-539 = system: SF-539
A498 = system: A498
CCRF-CEM = system: CCRF-CEM
K562 = system: K562
NCI-H226 = system: NCI-H226
HOP-62 = system: HOP-62
SNB-19 = system: SNB-19
SK-MEL-2 = system: SK-MEL-2
MDA-MB-435 = system: MDA-MB-435

Measured: GI50

COC(=O)CCC(=O)C(CC(=O)OC)C(=O)CCC(=O)NCCc1ccccc1 (stereo unspecified)
inactive: SK-OV-3 > 100 µM | 786-0 > 100 µM | U-251 > 100 µM | MOLT-4 > 100 µM | CAKI-1 > 100 µM | OVCAR-4 > 100 µM | RXF 393 > 100 µM | SK-MEL-5 > 100 µM | RPMI-8226 > 100 µM | HCT-116 > 100 µM | SF-539 > 100 µM | A498 > 100 µM | CCRF-CEM > 100 µM | K562 > 100 µM | NCI-H226 > 100 µM | HOP-62 > 100 µM | SNB-19 > 100 µM | SK-MEL-2 > 100 µM

COc1ccccc1C(=O)c1ccc2ccccc2c1
inactive: 786-0 30.1 µM | U-251 13.3 µM | MOLT-4 4.34 µM | CAKI-1 13.8 µM | OVCAR-4 36 µM | RXF 393 22.5 µM | SK-MEL-5 6.19 µM | RPMI-8226 16.2 µM | HCT-116 39.7 µM | MDA-MB-435 3.47 µM | SF-539 5.74 µM | CCRF-CEM 20.2 µM | K562 4 µM | NCI-H226 31.5 µM | HOP-62 33.7 µM | SNB-19 19.5 µM | SK-MEL-2 14.1 µM

COc1cc2nc(-c3cccs3)nc(N3CCN(c4ccccc4C(F)(F)F)CC3)c2cc1OC
inactive: SK-OV-3 > 100 µM | 786-0 > 100 µM | U-251 > 100 µM | MOLT-4 16.7 µM | CAKI-1 25.2 µM | OVCAR-4 > 100 µM | SK-MEL-5 33.3 µM | RPMI-8226 51.3 µM | HCT-116 > 100 µM | MDA-MB-435 52.8 µM | SF-539 55.6 µM | A498 > 100 µM | CCRF-CEM 7.23 µM | K562 83.6 µM | NCI-H226 > 100 µM | HOP-62 > 100 µM | SNB-19 > 100 µM | SK-MEL-2 > 100 µM

Cc1cc(C)c(C(=O)c2no[n+]([O-])c2C(=O)c2c(C)cc(C)c(Br)c2C)c(C)c1Br
inactive: SK-OV-3 20.7 µM | 786-0 15.1 µM | U-251 12.5 µM | MOLT-4 4.65 µM | CAKI-1 11.4 µM | OVCAR-4 10.2 µM | RXF 393 6.05 µM | RPMI-8226 10.2 µM | HCT-116 10.2 µM | SF-539 15.5 µM | A498 17.6 µM | CCRF-CEM 2.59 µM | NCI-H226 16.1 µM | HOP-62 18.2 µM | SNB-19 15.7 µM | SK-MEL-2 14.1 µM

C/C(CC(=O)CCCC(=O)Nc1ccc(Cl)cc1Cl)=N/NC(=O)CC#N
inactive: SK-OV-3 > 100 µM | 786-0 > 100 µM | U-251 > 100 µM | MOLT-4 > 100 µM | CAKI-1 > 100 µM | OVCAR-4 > 100 µM | RXF 393 > 100 µM | SK-MEL-5 > 100 µM | RPMI-8226 > 100 µM | HCT-116 > 100 µM | SF-539 > 100 µM | A498 > 100 µM | CCRF-CEM > 100 µM | K562 > 100 µM | NCI-H226 > 100 µM | SNB-19 > 100 µM | SK-MEL-2 > 100 µM

O=C(O)c1ccc2c(c1)C(=O)N(c1ccc(S(=O)(=O)c3ccc(N4C(=O)c5ccc(C(=O)O)cc5C4=O)cc3)cc1)C2=O
inactive: SK-OV-3 > 100 µM | 786-0 > 100 µM | U-251 > 100 µM | MOLT-4 > 100 µM | CAKI-1 > 100 µM | OVCAR-4 > 100 µM | RXF 393 > 100 µM | SK-MEL-5 > 100 µM | RPMI-8226 > 100 µM | HCT-116 > 100 µM | SF-539 > 100 µM | A498 > 100 µM | CCRF-CEM > 100 µM | K562 > 100 µM | NCI-H226 > 100 µM | HOP-62 > 100 µM | SNB-19 > 100 µM | SK-MEL-2 > 100 µM

CCOc1ccccc1NC(=O)CSc1nnc(Cc2ccccc2)o1
inactive: SK-OV-3 44.9 µM | 786-0 17.9 µM | U-251 20.2 µM | MOLT-4 23 µM | CAKI-1 20.5 µM | OVCAR-4 26.4 µM | RXF 393 35.7 µM | SK-MEL-5 19.3 µM | RPMI-8226 35.6 µM | HCT-116 30.6 µM | SF-539 25.5 µM | A498 66.7 µM | CCRF-CEM 33.5 µM | K562 54.8 µM | NCI-H226 25.2 µM | HOP-62 > 100 µM | SNB-19 24 µM | SK-MEL-2 23.8 µM

OC12c3ccccc3C1(N1CCOCC1)CCCCC21OCCCO1 (stereo unspecified)
inactive: SK-OV-3 > 100 µM | 786-0 > 100 µM | U-251 > 100 µM | MOLT-4 > 100 µM | CAKI-1 > 100 µM | OVCAR-4 > 100 µM | RXF 393 > 100 µM | SK-MEL-5 > 100 µM | RPMI-8226 > 100 µM | HCT-116 > 100 µM | SF-539 > 100 µM | A498 > 100 µM | CCRF-CEM > 100 µM | K562 > 100 µM | NCI-H226 > 100 µM | HOP-62 > 100 µM | SNB-19 > 100 µM | SK-MEL-2 > 100 µM

N#Cc1c(N2CCOCC2)[nH]c(=O)c(C(c2c(Cl)cccc2Cl)c2c(O)c(C#N)c(N3CCOCC3)[nH]c2=O)c1O
inactive: 786-0 32 µM | U-251 16.7 µM | MOLT-4 16.1 µM | CAKI-1 18.1 µM | OVCAR-4 17.7 µM | RXF 393 14.1 µM | SK-MEL-5 16.6 µM | RPMI-8226 21.4 µM | HCT-116 28.3 µM | MDA-MB-435 16.6 µM | SF-539 19.1 µM | A498 34.5 µM | CCRF-CEM 15.1 µM | K562 11.2 µM | NCI-H226 23 µM | HOP-62 22.1 µM | SNB-19 16.1 µM | SK-MEL-2 17.6 µM

CC(=O)N(C)c1cc(NCc2ccccc2)ccc1OCc1ccccc1
inactive: SK-OV-3 21.7 µM | 786-0 27.9 µM | U-251 17.4 µM | MOLT-4 25.8 µM | CAKI-1 17.7 µM | OVCAR-4 18.7 µM | RXF 393 14.8 µM | SK-MEL-5 18.3 µM | HCT-116 31.8 µM | MDA-MB-435 16.6 µM | SF-539 17.3 µM | A498 16.3 µM | CCRF-CEM 23.6 µM | K562 22.1 µM | NCI-H226 18.4 µM | HOP-62 33 µM | SNB-19 17.9 µM | SK-MEL-2 16.9 µM

COc1cccc(C(=O)C2C(=O)N(C)CCc3ccccc32)c1OC (stereo unspecified)
inactive: SK-OV-3 > 100 µM | 786-0 > 100 µM | U-251 > 100 µM | MOLT-4 > 100 µM | CAKI-1 > 100 µM | OVCAR-4 > 100 µM | RXF 393 > 100 µM | SK-MEL-5 > 100 µM | RPMI-8226 > 100 µM | HCT-116 > 100 µM | A498 > 100 µM | CCRF-CEM > 100 µM | K562 > 100 µM | NCI-H226 > 100 µM | HOP-62 > 100 µM | SNB-19 > 100 µM | SK-MEL-2 > 100 µM

CS(=O)(=O)NNS(=O)(=O)c1ccc(Br)cc1
inactive: SK-OV-3 > 100 µM | 786-0 > 100 µM | U-251 > 100 µM | CAKI-1 > 100 µM | OVCAR-4 > 100 µM | RXF 393 > 100 µM | SK-MEL-5 > 100 µM | RPMI-8226 > 100 µM | HCT-116 > 100 µM | SF-539 > 100 µM | A498 > 100 µM | CCRF-CEM > 100 µM | K562 > 100 µM | NCI-H226 > 100 µM | HOP-62 > 100 µM | SNB-19 > 100 µM | SK-MEL-2 > 100 µM

Nc1c(F)c(F)c2c(c1F)N(CCCCCl)c1ccccc1S2
inactive: SK-OV-3 > 100 µM | 786-0 > 100 µM | U-251 > 100 µM | MOLT-4 > 100 µM | CAKI-1 > 100 µM | OVCAR-4 > 100 µM | RXF 393 > 100 µM | SK-MEL-5 > 100 µM | RPMI-8226 > 100 µM | HCT-116 > 100 µM | SF-539 > 100 µM | A498 > 100 µM | CCRF-CEM > 100 µM | K562 > 100 µM | NCI-H226 > 100 µM | HOP-62 > 100 µM | SNB-19 > 100 µM | SK-MEL-2 > 100 µM

COC(=O)C1=C(OC(=O)/C(=C/c2ccc(Cl)cc2)c2ccccc2)C(C(=O)OC)[C@@]2(O)[C@@H](C(=O)OC)[C@H](C)C[C@@H]1[C@@H]2C(=O)OC (stereo partly specified)
inactive: SK-OV-3 > 100 µM | 786-0 > 100 µM | U-251 26.7 µM | MOLT-4 > 100 µM | CAKI-1 > 100 µM | OVCAR-4 > 100 µM | RXF 393 3.01 µM | SK-MEL-5 > 100 µM | RPMI-8226 > 100 µM | HCT-116 > 100 µM | MDA-MB-435 > 100 µM | SF-539 > 100 µM | A498 5.55 µM | CCRF-CEM > 100 µM | K562 > 100 µM | NCI-H226 > 100 µM | HOP-62 > 100 µM | SNB-19 77.8 µM | SK-MEL-2 > 100 µM

CCCCCCNCCc1c[nH]cn1
inactive: SK-OV-3 > 100 µM | 786-0 > 100 µM | U-251 > 100 µM | MOLT-4 > 100 µM | CAKI-1 > 100 µM | OVCAR-4 > 100 µM | RXF 393 > 100 µM | SK-MEL-5 > 100 µM | RPMI-8226 > 100 µM | HCT-116 > 100 µM | MDA-MB-435 > 100 µM | SF-539 > 100 µM | A498 > 100 µM | CCRF-CEM > 100 µM | K562 > 100 µM | NCI-H226 > 100 µM | HOP-62 > 100 µM | SNB-19 > 100 µM | SK-MEL-2 > 100 µM
